Results on 20 compounds are retold here after patent EP0404945A1 (priority 1989, dated 1990).

The structures appear in SMILES notation. Where two headings read alike, the source gives them in different places.

For data set [1], the system named is houseflies. Description: whole plant or invertebrate. To be noted: Musca domestica; for mortality at 1 %: read-out: Death of flies, % Tests laboratory.
For another data set, the system named is ascarid ovi. The data set is described as follows: animal or person. Type of data set: in vivo, pig.ascarid.
Data set [2] has as its system virus of influenza, type A, (H1N1). Description: microbe, parasite or virus in culture.
A further data set concerns Alternaria radicina. Type of data set: cell-based.
A further data set concerns Venturia inaequalis. Type of data set: cell-based.
The next data set deals with Fusarium oxysporum. Type of data set: cell-based.
The next data set relates to Candida albicans. The data set is described as follows: microbe, parasite or virus in culture. Type of data set: cell-based.
A further data set concerns Candida tropicalis. The data set is described as follows: microbe, parasite or virus in culture. Type of data set: cell-based.
The subject of a further data set is Aspergillus niger. Type of data set: cell-based.
The next data set concerns Helminthosporum saturem. Type of data set: cell-based.
Another data set deals with Penicillium sporum. Type of data set: cell-based.
In another data set the test system is Staphylococcus aureus. The data set is described as follows: microbe, parasite or virus in culture. Type of data set: cell-based. To be noted: read-out: Efficiency of the preparation, % Staphylococcus aureus.
The subject of a further data set is Colibacillus. The data set is described as follows: microbe, parasite or virus in culture. Type of data set: cell-based. The following applies: read-out: Efficiency of the preparation, % Colibacillus.
The subject of data set [3] is houseflies. To be noted: house fly, in vivo.
Data set [4] deals with Infectant of poliomyelitis.
[5] abbreviates: 24 h, read-out: Death of ascarid ovi, % after 24 hrs.
Where [6] appears, read: 48 h, read-out: Death of ascarid ovi, % after 48 hours.
Setting [7] is: 72 h, read-out: Death of ascarid ovi, % after 72 hours.
Setting [8] is: H1N1, 0.5 h, read-out: Death of viruses (%) at 30 minutes exposure, Virus of influenza A.
Where [9] appears, read: 24 h, read-out: Death of ascarid ovi, % after 24 hours.
The mark [10] stands for this setting: read-out: Death of ascarid ovi, % Tests laboratory.
[11] abbreviates: 48 h, read-out: Death of flies, % after 48 hours.
[12] abbreviates: 72 h, read-out: Death of flies, % after 72 hours.
Setting [13] is: H1N1, read-out: Virucidal activity of the preparation in respect of the virus of influenza, type A, %.
Where [14] appears, read: 24 h, read-out: Death of flies, % after 24 hours.
Where [15] appears, read: 2 h, read-out: Death of test fungi, % to the control, Candida albicans 2 hrs.
[16] abbreviates: 20 h, read-out: Death of test fungi, % to the control, Candida albicans 20 hrs.
Where [17] appears, read: 2 h, read-out: Death of test fungi, % to the control, Candida tropicalis 2 hrs.
[18] abbreviates: 20 h, read-out: Death of test fungi, % to the control, Candida tropicalis 20 hrs.

Take `CCOP(=O)(NC(CCl)C(O)c1ccc([N+](=O)[O-])cc1)OCC` (stereo not drawn) [Example 13, 1-para-nitrophenyl-1-chloro-3-propanolamidophosphoric acid diethyl ether]: the mortality at 1 % in the data set with houseflies [1] amounted to 99.6%. Further, the killing at 3 % in the data set with ascarid ovi (setting [5]), in the data set on ascarid ovi (setting [6]) and in the data set on ascarid ovi (setting [7]) was 100% each time. Besides, the killing at 1 % in data set [2] (setting [8]) was 90%.
Consider `CNC(=S)S` [Known ovocidal preparation (carbathion), sodium N-methyldithiocarbamate dihydrate, reference compound], for which the killing at 2 % was 60% in the data set on ascarid ovi (setting [9]) and 80% with ascarid ovi (setting [6]). Also, the killing at 3 % with ascarid ovi (setting [5]) is 100%; in the data set with ascarid ovi (setting [6]), 100%; with ascarid ovi (setting [10]) it was 80%.
On to `O=[N+]([O-])c1ccc(C(Cl)C(CCl)NP(=O)(O)Oc2ccccc2)cc1` (stereo not drawn) [Example 59, 1-para-nitrophenyl-1,3-dichloropropane--2-amidophosphoric acid monophenyl ether], for which the mortality at 2 % in the data set on houseflies [1] (setting [11]) is 60%; in the data set on houseflies [1] (setting [12]) it was 91.2%. The killing at 2 % with ascarid ovi (setting [9]) is 91.8%; with ascarid ovi (setting [6]) it was 100%; in [2] (setting [13]) it was 96.1%. The killing at 1 % in data set [2] (setting [13]) amounted to 92.3%.
For `O=[N+]([O-])c1ccc(C(O)C(CCl)NP(=O)(Oc2ccccc2)Oc2ccccc2)cc1` (stereo not drawn) [Example 5, diphenyl ether of 1-para-nitrophenyl-1--hydroxy-3-chloroisopropylamidophosphoric acid], the mortality at 3 % in the data set on houseflies [1] (setting [14]) came to 35.4%; in the data set on houseflies [1] (setting [12]), 96%. In addition, the killing at 3 % in the data set with ascarid ovi (setting [10]) was 100%. The killing at 1 % in data set [2] (setting [8]) stood at 100%.
As for `O=[N+]([O-])c1ccc(C(Cl)C(CCl)NP(=O)(O)Nc2ccccc2)cc1` (stereo not drawn) [Example 10, 1-para-nitrophenyl-1,3-dichloropropan--2-amidophosphoric acid monoanilide], the mortality at 3 % with houseflies [1] (setting [14]) was determined as 77%; with houseflies [1] (setting [12]), 99%. The killing at 3 % in the data set on ascarid ovi (setting [10]) came out at 100%. The killing at 1 % in data set [2] (setting [8]) was 87%.
On to `COP(=O)(NC(CCl)C(Cl)c1ccc([N+](=O)[O-])cc1)OC` (stereo not drawn) [Example 12, 1-para-nitrophenyl--1,3-dichloropropanamidophosphoric acid dimethyl ether], for which, in the data set on houseflies [1], the mortality at 1 % came out at 71.4%. Moreover, the killing at 3 % in the data set with ascarid ovi (setting [5]), in the data set with ascarid ovi (setting [6]) and with ascarid ovi (setting [7]) was 100% in each case. The killing at 1 % in data set [2] (setting [8]) was 85%.
As for `O=C1C(Cl)=C(Cl)C(=O)c2ccccc21` [Phygon, 2,3-dichloronaphtho-quinone-1,4, reference compound], the “Mycelium growth inhibition, % to the control, Alternaria radicina” value with Alternaria radicina is reported as 94%. In the data set with Venturia inaequalis, the “Mycelium growth inhibition, % to the control, Venturia inaequalis” value was found to be 98%. Also, the “Mycelium growth inhibition, % to the control, Fusarium oxisporum” value in the data set with Fusarium oxysporum stood at 58%. Further, the killing at 0.05 % in the data set with Candida albicans (setting [15]) worked out at 68%; in the data set on Candida albicans (setting [16]) it was 100%; in the data set on Candida tropicalis (setting [17]), 76%; with Candida tropicalis (setting [18]), 100%. Moreover, the “Mycelium growth inhibition, % to the control, Aspergillus niger” value with Aspergillus niger stood at 100%. In addition, in the data set with Helminthosporum saturem, the “Mycelium growth inhibition, % to the control, Helminthosporum saturem” value turned out to be 92%. Moreover, in the data set on Penicillium sporum, the “Mycelium growth inhibition, % to the control, Penicillium sporum” value came to 100%.
On to `O=S(=O)(NCl)c1ccccc1` [Known bactericidal preparation, Sodium N-Chlorobenzenesulphamide, reference compound], for which, in the data set with Staphylococcus aureus, the killing at 0.5 % worked out at 100%. For the same compound, in the data set on Colibacillus, the killing at 0.5 % came out at 100%. In data set [2] (setting [13]), the killing at 1 % came to 22% and the killing at 2 % worked out at 28%.
As for `CCOP(=O)(O)NC(CCl)C(Cl)c1ccc([N+](=O)[O-])cc1` (stereo not drawn) [Example 31, 1-para-nitrophenyl-1,3-dichloropropanamidophosphor-ic acid ethyl ether], the mortality at 2 % in the data set with houseflies [1] (setting [11]) is 44.2%. For the same compound, the mortality at 2 % in the data set on houseflies [1] (setting [12]) stood at 91.3%. Besides, in the data set with ascarid ovi (setting [10]), the killing at 3 % came to 100%. In data set [2] (setting [13]), the killing at 1 % was 36.9% and the killing at 2 % is 46.9%.
For `O=[N+]([O-])c1ccc(C(Cl)C(CCl)NP(=O)(Oc2ccccc2)Oc2ccccc2)cc1` (stereo not drawn) [Example 6, 1-para-nitrophenyl-1,3-dichlorisopropylamidophosphoric acid diphenyl ether], the mortality at 3 % amounted to 64.7% with houseflies [1] (setting [14]) and 98.6% in the data set with houseflies [1] (setting [12]). Further, the killing at 3 % in the data set on ascarid ovi (setting [10]) turned out to be 100%. For the same compound, the killing at 1 % in [2] (setting [8]) is 100%.
In the case of `O=[N+]([O-])c1ccc(C(O)C(CCl)NP(=O)(Nc2ccccc2)Nc2ccccc2)cc1` (stereo not drawn) [Example 7, 1-para-nitrophenyl-1-hydroxy-3-chloroisopro-pylamidophosphoric acid dianilide], the mortality at 3 % with houseflies [1] (setting [14]) worked out at 55.1%; in the data set on houseflies [1] (setting [12]), 94%. Moreover, the killing at 3 % with ascarid ovi (setting [10]) stood at 100%. Further, the killing at 1 % in [2] (setting [8]) came to 100%.
Regarding `O=C(N[C@H](COP(=O)(NC(CCl)C(O)c1ccc([N+](=O)[O-])cc1)OC[C@@H](NC(=O)C(Cl)Cl)[C@H](O)c1ccc([N+](=O)[O-])cc1)[C@H](O)c1ccc([N+](=O)[O-])cc1)C(Cl)Cl` (stereo partly drawn) [Example 32], the killing at 3 % in the data set with ascarid ovi (setting [10]) amounted to 100%.
For the compound `CCOP(=O)(O)NC(CCl)C(O)c1ccc([N+](=O)[O-])cc1` (stereo not drawn) [Example 30], in the data set on houseflies [1] (setting [11]), the mortality at 2 % was found to be 42.8%. Besides, in the data set with houseflies [1] (setting [12]), the mortality at 2 % turned out to be 94%. For the same compound, the killing at 3 % with ascarid ovi (setting [10]) stood at 100%. Moreover, in [2] (setting [13]), the killing at 1 % was determined as 71.2% and the killing at 2 % came to 79%.
For `O=[N+]([O-])c1ccc(C(O)C(CCl)NP(=O)(O)Nc2ccccc2)cc1` (stereo not drawn) [Example 9], the mortality at 3 % in the data set with houseflies [1] (setting [14]) came to 65%; in the data set on houseflies [1] (setting [12]), 96%. In addition, the killing at 3 % in the data set on ascarid ovi (setting [10]) worked out at 100%. Besides, the killing at 1 % in [2] (setting [8]) came to 78%.
With `CCOP(=O)(O)NC(CO)C(O)c1ccc([N+](=O)[O-])cc1` (stereo not drawn) [Example 29, 1-para-nitrophenyl-1,3-propanediolamidophos-phoric acid ethyl ether], the mortality at 2 % with houseflies [1] (setting [11]) came to 56%. In addition, the mortality at 2 % with houseflies [1] (setting [12]) was determined as 92.3%. The killing at 3 % in the data set with ascarid ovi (setting [10]) is 100%. Besides, in [2] (setting [13]), the killing at 1 % worked out at 83.3% and the killing at 2 % is 86.7%.
With `O=[N+]([O-])c1ccc(C(O)C(CCl)NP(=O)(O)Oc2ccccc2)cc1` (stereo not drawn) [Example 58], the values for the mortality at 2 % in the data set with houseflies [1] (setting [11]) and with houseflies [1] (setting [12]) were 72% and 99%, respectively. Besides, the values for the killing at 2 % (in the data set with ascarid ovi (setting [9]); in the data set on ascarid ovi (setting [6]); in [2] (setting [13])) were 95.4%, 100% and 86%, respectively. Moreover, the killing at 1 % in data set [2] (setting [13]) stood at 83.4%.
As for `COP(=O)(NC(CCl)C(O)c1ccc([N+](=O)[O-])cc1)OC` (stereo not drawn) [Example 11, 1-para-nitrophenyl-1-chloro-3-propanolamidophosphoric acid dimethyl ether], the mortality at 1 % with houseflies [1] stood at 67.7%. Further, the killing at 3 % in the data set on ascarid ovi (setting [5]), with ascarid ovi (setting [6]) and with ascarid ovi (setting [7]) was 100% each time. For the same compound, the “Death of flies, % Tests laboratory” value in the data set with houseflies [3] worked out at 72.7%. Besides, the killing at 1 % in data set [2] (setting [8]) amounted to 74%.
As for `O=[N+]([O-])c1ccc(C(O)C(CO)NP(=O)(O)O)cc1` (stereo not drawn) [Example 1, 1-para-netrophenyl-1,3--propanediolamidophosphoric acid], the “Mycelium growth inhibition, % to the control, Alternaria radicina” value in the data set on Alternaria radicina was determined as 75%. Further, in the data set on Venturia inaequalis, the “Mycelium growth inhibition, % to the control, Venturia inaequalis” value is on record as 32%. In addition, the “Mycelium growth inhibition, % to the control, Fusarium oxisporum” value in the data set with Fusarium oxysporum was 68%. Besides, the killing at 0.05 % in the data set on Candida albicans (setting [15]) was 98%; in the data set on Candida albicans (setting [16]), 100%; in the data set with Candida tropicalis (setting [17]) it was 96%; in the data set with Candida tropicalis (setting [18]) it was 100%. Besides, the killing at 0.5 % stood at 80% in the data set on Staphylococcus aureus and 100% in the data set with Colibacillus. Also, the “Mycelium growth inhibition, % to the control, Aspergillus niger” value in the data set with Aspergillus niger is given as 99%. Further, in the data set with ascarid ovi (setting [10]), the killing at 3 % came out at 100%. The “Death of viruses (%) at 60 minutes exposure, Infectant of poliomyelitis” value in data set [4] is 40%. Further, the “Mycelium growth inhibition, % to the control, Helminthosporum saturem” value in the data set on Helminthosporum saturem came out at 54%. Besides, the “Mycelium growth inhibition, % to the control, Penicillium sporum” value in the data set with Penicillium sporum is reported as 58%.
Regarding `CCOP(=O)(NC(CCl)C(Cl)c1ccc([N+](=O)[O-])cc1)OCC` (stereo not drawn) [Example 14, 1-para-nitrophenyl-1,3--dichloropropanamidophosphoric acid diethyl ether], the killing at 3 % in the data set with ascarid ovi (setting [5]), in the data set on ascarid ovi (setting [6]) and with ascarid ovi (setting [7]) was 100% in each case. Moreover, in data set [2] (setting [8]), the killing at 1 % worked out at 90%.
For the compound `O=[N+]([O-])c1ccc(C(Cl)C(CCl)NP(=O)(Nc2ccccc2)Nc2ccccc2)cc1` (stereo not drawn) [Example 8, 1-para- . -nitrophenyl-1,3-dichloroisopropylamidophosphoric acid dianilide], the results for the mortality at 3 % in the data set on houseflies [1] (setting [14]) and with houseflies [1] (setting [12]) were 66.4% and 98%, respectively. In the data set with ascarid ovi (setting [10]), the killing at 3 % is 100%. Further, the killing at 1 % in data set [2] (setting [8]) is 100%.
